Assay results reported in patent US20060270634A1, “Acetal phosphate-derived LPA mimics, PPARgamma activators, and autotaxin inhibitors” (priority 2005, published 2006).
pEC50, pIC50, pKi: −log10 of the molar value. Entries after “also recorded” stand apart in the source; their conditions may differ. Like-named read-outs stand apart in the source and are kept apart here. Values belong to the molecule of their own block, whether it stands above or below them.

Tests used:
LPA2 = LPA2 (Homo sapiens, UniProt Q9HBW0); assay: Ca2+ transients in RH7777 cells expressing LPA2 (agonist / inhibition of LPA response); conditions: for Emax: RH7777, read-out: LPA2 (Emax); for LPA2 effect in words: *transient
LPA1 = LPA1 (Homo sapiens, UniProt Q92633); assay: Ca2+ transients in RH7777 cells expressing LPA1 (agonist / inhibition of LPA response); conditions: for Emax: RH7777, read-out: LPA1 (Emax); for LPA1 effect in words: Tables 2, 4, 6; for pEC50: read-out: LPA1 EC50
LPA3 = biological target: T1, LPA3 (Homo sapiens, UniProt Q9UBY5); assay: Ca2+ transients in RH7777 cells expressing LPA3 (agonist / inhibition of LPA response); conditions: for pEC50: read-out: LPA3 EC50; for pIC50: read-out: LPA3 IC50; for LPA3 effect in words: Tables 2, 4, 6
T1 sequence (Q9UBY5 1-353): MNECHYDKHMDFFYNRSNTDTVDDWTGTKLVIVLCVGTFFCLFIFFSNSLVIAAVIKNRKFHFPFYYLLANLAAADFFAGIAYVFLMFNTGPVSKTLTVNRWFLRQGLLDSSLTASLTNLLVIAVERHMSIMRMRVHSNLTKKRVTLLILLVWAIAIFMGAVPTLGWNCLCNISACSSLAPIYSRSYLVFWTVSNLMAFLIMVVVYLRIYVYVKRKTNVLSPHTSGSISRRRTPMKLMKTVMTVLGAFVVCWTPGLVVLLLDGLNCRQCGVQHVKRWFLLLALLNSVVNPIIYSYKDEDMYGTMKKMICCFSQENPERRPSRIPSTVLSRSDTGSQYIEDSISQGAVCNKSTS

[1] = read-out: LPA1 IC50, 200 nM LPA

Chain of LPA2 (Q9HBW0 whole entry, species assumed): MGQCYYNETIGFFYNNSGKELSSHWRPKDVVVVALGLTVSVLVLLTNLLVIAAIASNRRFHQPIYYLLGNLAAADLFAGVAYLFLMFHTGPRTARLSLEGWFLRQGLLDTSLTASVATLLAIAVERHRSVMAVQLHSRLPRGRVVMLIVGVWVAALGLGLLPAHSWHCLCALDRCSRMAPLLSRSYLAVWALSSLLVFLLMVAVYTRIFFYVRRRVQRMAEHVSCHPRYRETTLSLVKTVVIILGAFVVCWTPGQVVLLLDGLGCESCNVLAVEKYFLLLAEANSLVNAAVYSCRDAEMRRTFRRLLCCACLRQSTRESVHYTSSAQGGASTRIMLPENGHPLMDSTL
Chain of LPA1 (Q92633 whole entry, species assumed): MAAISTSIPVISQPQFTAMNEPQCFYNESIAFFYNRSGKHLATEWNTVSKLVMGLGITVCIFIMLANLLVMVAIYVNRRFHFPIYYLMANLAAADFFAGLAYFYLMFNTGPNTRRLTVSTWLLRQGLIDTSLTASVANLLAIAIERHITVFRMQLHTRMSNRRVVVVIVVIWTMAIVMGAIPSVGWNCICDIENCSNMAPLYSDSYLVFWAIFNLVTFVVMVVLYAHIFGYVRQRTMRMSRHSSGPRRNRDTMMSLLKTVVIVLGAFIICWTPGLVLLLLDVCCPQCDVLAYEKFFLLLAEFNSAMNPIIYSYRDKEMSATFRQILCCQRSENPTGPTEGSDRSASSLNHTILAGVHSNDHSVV

Compound: CCCCCCCC/C=C\CCCCCCC[C@@H]1OC[C@@H](COP(O)(O)=S)O1 [Analog 28]
- pIC50 (LPA2): < 4.52
- EC50 (LPA2; LPA2 (nM) EC50, Table 1): 1710 nM

- pKi (LPA1): 6.39
- pIC50 (LPA1; LPA1 IC50, Table 5): 6.16
Compound: CCCCCCCC(=O)OCC(COP(=O)(O)O)OC(=O)CCCCCCC (centres unmarked) [Cpd 2, phosphatidic acid 8:0, reference compound]

- LPA1 agonist/antagonist activity in words (LPA1): subtype selective antagonism
- pKi (LPA1; read-out: LPA1 (Ki), Table 5): 6.66
- pIC50 (LPA1; read-out: LPA1 IC50, Table 5): 6.36
- LPA3 agonist/antagonist activity in words (LPA3): subtype selective antagonism
- LPA2 agonist/antagonist activity in words (LPA2): no effect
Compound: CCCCCCCC(=O)OC[C@@H](COP(=O)(O)O)OC(=O)CCCCCCC [Cpd 7a, (2S)-PA 8:0]

Compound: CCCCCCCC(=O)OC[C@@H](COP(O)(O)=S)OC(=O)CCCCCCC [Cpd 8a, thiophosphatidic acid 8:0]
- LPA1 agonist/antagonist activity in words (LPA1): lacked LPA1/3 antagonism
- LPA3 agonist/antagonist activity in words (LPA3): partial agonist
- Emax (LPA3; RH7777, read-out: LPA3 (Emax)): 30%
- pEC50 (LPA3; Table 5): 6.94
- LPA2 agonist/antagonist activity in words (LPA2): partial agonist
- Emax (LPA2): 17%
- pEC50 (LPA2; read-out: LPA2 EC50, Table 5): 5.14

Compound: CCCCCCCC(=O)OC[C@H](COP(O)(O)=S)OC(=O)CCCCCCC [Cpd 8b, (2R)-TPA 8:0]
- LPA1 agonist/antagonist activity in words (LPA1): more potent antagonist
- pKi (LPA1; read-out: LPA1 (Ki), Table 5): 6.44
- pIC50 (LPA1; read-out: LPA1 IC50, Table 5): 6.16
- selectivity for LPA3 over LPA1 (LPA3): 75 fold
- pIC50 (LPA3; Table 5): 7.96
- pKi (LPA3; read-out: LPA3 Ki): 8.30
- LPA2 agonist/antagonist activity in words (LPA2): partial agonist
- Emax (LPA2): 58%
- pEC50 (LPA2; read-out: LPA2 EC50, Table 5): 5.20

Compound: CCCCCCCCOC[C@@H](COP(=O)(O)O)OCCCCCCCC [Cpd 12a]
- pKi (LPA1; read-out: LPA1 (Ki), Table 5): 6.31
- pIC50 (LPA1; [1]): 5.80
- pIC50 (LPA1; read-out: LPA1 IC50, Table 5): 5.80
- pKi (LPA3; read-out: LPA3 (Ki), Table 5): 7.30
- pIC50 (LPA3; 200 nM LPA): 6.84
- pIC50 (LPA3; Table 5): 6.84
- LPA2 effect in words (LPA2): Weak inhibition(?) *transient

Compound: CCCCCCCCOC[C@H](COP(=O)(O)O)OCCCCCCCC [Cpd 12b, (2R)-APA 8:0]
- LPA1 agonist/antagonist activity in words (LPA1): agonists; also recorded: Enantiospecific activation
- Emax (LPA1): 57%
- LPA1 effect in words (LPA1): Partial agonist
- pEC50 (LPA1): 5.49
- pEC50 (LPA1; Table 5, PA 8:0 analogs): 5.49
- LPA3 agonist/antagonist activity in words (LPA3): agonists; also recorded: Enantiospecific activation
- Emax (LPA3; RH7777, read-out: LPA3 (Emax)): 109%
- LPA3 effect in words (LPA3): Full agonist
- pEC50 (LPA3): 6.79
- pEC50 (LPA3; Table 5): 6.79
- LPA2 effect in words (LPA2): Partial agonist
- pEC50 (LPA2; LPA2 EC50, *transient): 5.60

Compound: CCCCCCCCOC[C@@H](COP(O)(O)=S)OCCCCCCCC [Cpd 13a, dialkyl thiophosphatidic acid 8:0]
- pKi (LPA1; read-out: LPA1 (Ki), Table 5): 6.86
- pIC50 (LPA1; [1]): 6.48
- pIC50 (LPA1; read-out: LPA1 IC50, Table 5): 6.48
- pKi (LPA3; read-out: LPA3 (Ki), Table 5): 7.17
- pIC50 (LPA3; 200 nM LPA): 6.74
- pIC50 (LPA3; Table 5): 6.74
- LPA2 effect in words (LPA2): Weak stimulation *transient

Compound: CCCCCCCCOC[C@H](COP(O)(O)=S)OCCCCCCCC [Cpd 13b, 2(R)-ATPA 8:0]
- LPA1 agonist/antagonist activity in words (LPA1): agonists; also recorded: Enantiospecific activation
- Emax (LPA1): 30%
- LPA1 effect in words (LPA1): Partial agonist
- pEC50 (LPA1): 6.16
- pEC50 (LPA1; Table 5, PA 8:0 analogs): 6.16
- LPA3 agonist/antagonist activity in words (LPA3): agonists; also recorded: potent LPA3 receptor subtype-selective agonist; also recorded: full agonist
- selectivity for LPA3 over LPA1 (LPA3): ~230 fold
- selectivity for LPA3 over LPA2 (LPA3): ~1900 fold
- Emax (LPA3; RH7777, read-out: LPA3 (Emax)): 109%
- Emax (LPA3; RH7777, read-out: LPA3 Emax): 109%
- LPA3 effect in words (LPA3): Full agonist
- pEC50 (LPA3): 8.52
- pEC50 (LPA3; Table 5): 8.52
- pEC50 (LPA3; text): 8.52
- LPA2 agonist/antagonist activity in words (LPA2): weak and partial agonist
- LPA2 effect in words (LPA2): Partial agonist
- pEC50 (LPA2; LPA2 EC50, *transient): 5.99
- Emax (LPA2): 27%

Compound: CCCCCCCCNC(=O)[C@H](COP(O)(O)=S)NC(=O)CCCCCCC [Cpd 20a]
- pKi (LPA1; read-out: LPA1 (Ki), Table 5): 6.82
- pIC50 (LPA1; read-out: LPA1 IC50, Table 5): 6.32
- pKi (LPA3; read-out: LPA3 (Ki), Table 5): 6.93
- pIC50 (LPA3; Table 5): 6.60

Compound: CCCCCCCCNC(=O)[C@@H](COP(O)(O)=S)NC(=O)CCCCCCC [Cpd 20b]
- pKi (LPA1; read-out: LPA1 (Ki), Table 5): 5.55
- pIC50 (LPA1; read-out: LPA1 IC50, Table 5): 5.13
- pKi (LPA3; read-out: LPA3 (Ki), Table 5): 6.93
- pIC50 (LPA3; Table 5): 6.52

Compound: CCCCCCCCc1ccc(CCCCCCC2OCC(COP(=O)(O)O)O2)cc1 (centres unmarked) [ID 14]
- pIC50 (LPA1; [1]): 5.33
- LPA3 effect in words (LPA3): Partial agonist

Compound: CCCCCCCCc1ccc(CCCCCCC2OCC(COP(O)(O)=S)O2)cc1 (centres unmarked) [ID 15]
- LPA1 effect in words (LPA1): Weak antagonist

- LPA1 agonist/antagonist activity in words (LPA1): agonist of LPA1-3
- LPA3 agonist/antagonist activity in words (LPA3): agonist of LPA1-3
- LPA2 agonist/antagonist activity in words (LPA2): agonist of LPA1-3
Compound: CCCCCCCC/C=C\CCCCCCCC(=O)OC[C@@H](O)COP(=O)(O)O [Oleoyl-LPA, reference compound]
